Data as given in patent publication US20040121965A1, “Method of treating resistant tumors” (Wyeth Holdings Corporation, priority 2002, published 2004).
Several values for one entry are separate records, joined by “and”; a condition that tells them apart may be missing. Identical values can stand only once. Like-named read-outs stand apart in the source and are kept apart here.

Columns and labels:
HCT-15 = assay: Cell survival assay (SRB), HCT-15; format: cell-based; details: Homo sapiens, HCT-15, 72 h, 3 days
Excerpt: (§1) Cells lines with previously known mechanisms of resistance. […] Res. 8: 207-218,1996); KB-3-1 (parental derived from an epidermoid carcinoma), KB-8.5, KB-V1 (Akiyama S-I, Fojo A, Hanover J A, Pastan I, Gottesman M M. Isolation and genetic characterization of human KB cell lines resistant to multiple drugs. Somatic Cell Mol. Gen., 11: 117-126,1985; Shen D-W, Cardarelli C, Hwang J, Cornwell M, Richert N, Ishii S, Pastan I, Gottesman MM. […] J. Biol. Chem., 261: 7762-7770, 1986); and HL-60 (parental derived from human leukemia) and HL60/AR (McGrath T., Center M. S. Adriamycin resistance in HL60 cells in the absence of detectable P-glycoprotein. Biochem. Res. Commun., 145:1171-1176,1987); A549 and A549.EpoB40 (He L., Yang C.-P.H., Horwitz S. B. Mutations in p-tubulin map to domains involved in regulation of microtubule stability in epothilone-resistant cell lines. Molecular Cancer Therapeutics. 1: 3-10, 2001). HCT-15 human colon carcinoma and DLD-1 human colon carcinoma are obtained from American Tissue Culture Collection. The MX-1W carcinoma is a Wyeth variant orginally obtained as MX-1 breast carcinoma from the National Cancer Institute. Cell lines selected for resistance to Representative Example 129. KB-3-1 cells are selected for resistance to Example 129 by chronically exposing cells to increasing concentrations of Example 129.
(§2) 2.2. Cell Survival Assay: Standard Pharmacological Test Procedure. The concentration of candidate inhibitor required to inhibit 50% of cell growth (IC50) is done according to previously reported methods. […] Compounds are serially diluted into media as 2× stocks and 100 μl added to cells in duplicate. Compounds are incubated with cells for 3 days. At the end of the incubation period the sulforhodamine B (SRB) assay, which measures protein content as an assessment of cell survival, is performed as described previously (Skehan P, Storeng R, Scudiero D, Monks A, McMahon J, Vistica D, Warren J T, Bokesch H, Kenney S, Boyd MR. New calorimetric cytotoxicity assay for anticancer-drug screening. J Natl Cancer Inst 1990 Jul 4;82(13):1107-12) with some modification as follows. For KB-3-1 cells with 20% FCS, media is gently decanted and replaced with 200 μl of serum-free media mixed with cold 50% TCA for a final concentration of 10% TCA. The plates are incubated for 1 hr at 4° C., followed by washing 5 times in cold distilled water, then air dried overnight. The fixed cells are stained for 10 min with 80 μl of 0.04% SRB solution prepared in 1% glacial acetic acid. Stain is discarded and plates washed 5 times in 1% glacial acetic acid, then air-dried until completely dry. Stained cell product is dissolved in 150 μl of 10 mM Trizma Base and placed on a shaker for 20 minutes until fully dissolved. Absorbance is read on a Victor V multi-label plate reader (Perkin Elmer, Gaithersburg, Md.).

U87 = assay: Cell survival assay (SRB), U87; format: cell-based; details: Homo sapiens, U-87 MG, 72 h
Method: (§3) 2.2. Cell Survival Assay: Standard Pharmacological Test Procedure. […] Compounds are incubated with cells for 3 days.

KB-8-5 (MDR1+) = assay: Cell survival assay (SRB), KB-8-5 (MDR1+); details: for IC50: Homo sapiens
DLD-1 = assay: Cell survival assay (SRB), DLD-1; format: cell-based; details: Homo sapiens, DLD-1, 72 h, 3 days
Excerpt: as §1, §2

HT-29 = assay: Cell survival assay (SRB), HT-29; format: cell-based; details: Homo sapiens
Method: as §3

KB-PTX-15+099 = assay: Cell survival assay, KB-PTX-15+099 (paclitaxel-resistant, non-MDR); format: cell-based, human; details: for IC50: Homo sapiens
A431 = assay: Cell survival assay (SRB), A431; format: cell-based; details: Homo sapiens, A-431, 72 h
Method: as §3

S1 = assay: Cell survival assay (SRB), S1; format: cell-based; details: Homo sapiens
Excerpt: as §1, §2

A498 = assay: Cell survival assay (SRB), A498; format: cell-based; details: Homo sapiens
Method: as §3

MX-1W = assay: Cell survival assay (SRB), MX-1W; format: cell-based; details: Homo sapiens, MX1W, 72 h, 3 days
Excerpt: as §1, §2

Lox = assay: Cell survival assay (SRB), Lox; format: cell-based; details: Homo sapiens, 72 h
Method: as §3

KB-V1 (MDR1++) = assay: Cell survival assay (SRB), KB-V1 (MDR1++); details: for IC50: Homo sapiens
A549.EpoB40 = format: cell-based; details: vs A549; below 1 = sensitive
Excerpt: as §1
as §2, with “Stained cell product is dissolved in 150 μl of 10 mM Trizma Base and placed on a shaker for 20 minutes until fully dissolved.” left out

Capan-1 = assay: Cell survival assay (SRB), Capan-1; format: cell-based; details: Homo sapiens
Method: as §3

PC3MM2 = assay: Cell survival assay (SRB), PC3MM2; format: cell-based; details: Homo sapiens
Method: as §3

With CN[C@H](C(=O)N[C@H](C(=O)N(C)[C@H](/C=C(\C)C(=O)O)C(C)C)C(C)(C)C)C(C)(C)c1ccccc1 [Example 129, N,β,β-trimethyl-L-phenylalanyl-N^1-[(1S,2E)-3-carboxy-1-isopropylbut-2-enyl]-N^1,3-dimethyl-L-valinamide] the IC50 (HCT-15; HCT-15, colon, SRB staining) was 4.2 ± 2.5 nM, the IC50 (HCT-15; HCT-15, SRB, vehicle control (DMSO), no MDR-1 inhibitor) was 2.2 nM and the IC50 (HCT-15; read-out: IC50 + 5.0 uM MDR-1 inhibitor, HCT-15, SRB, + 5.0 uM MDR-1 inhibitor (heptanenitrile of Table 2)) was 0.5 nM. The IC50 (U87) was 2.4 ± 0.3 nM, the “RR, relative resistance” value (KB-8-5 (MDR1+)) was 2.4 and the “Ratio KB85/KB” value (KB-8-5 (MDR1+)) was 2.4. For the same molecule, the “resistance of KB-8-5 cells” value (KB-8-5 (MDR1+)) was 2.4-5 fold, the IC50 (KB-8-5 (MDR1+); MDR1, 72 h) was 1.9 nM and the IC50 (KB-8-5 (MDR1+); MDR1, 72 h, read-out: IC50 + 5.0 uM MDR-1 inhibitor) was 1.4 nM. It also gave an IC50 (KB-8-5 (MDR1+); MDR1, read-out: KB-8-5 (MDR1+) IC50, nM (N)) of 2.3 nM, an IC50 (DLD-1; DLD-1, colon, SRB staining) of 1.1 ± 0.4 nM and an IC50 (DLD-1; DLD-1, SRB, vehicle control (DMSO), no MDR-1 inhibitor) of 1.2 nM. For the same molecule, the IC50 (DLD-1; read-out: IC50 + 5.0 uM MDR-1 inhibitor, DLD-1, SRB, + 5.0 uM MDR-1 inhibitor (heptanenitrile of Table 2)) was 1.1 nM, the IC50 (HT-29; HT-29, 72 h) was 1.6 nM and the IC50 (KB-PTX-15+099; read-out: KB-PTX-15+099 IC50 (nM)) was 0.182 ± 0.028 nM. The “Average Relative Resistance (RR)” value (KB-PTX-15+099; IC50 KB-PTX-15+099 / IC50 KB-3-1, less than 1 = increased sensitivity) was “(0.30)”, the “increased sensitivity of KB-PTX-15+099 cells” value (KB-PTX-15+099; vs KB-3-1) was 3.4 fold and the IC50 (A431) was 2.4 ± 0.4 nM. The IC50 (S1; 72 h) was 3.7 ± 2 nM, the IC50 (S1; read-out: S1 IC50, nM (N)) was 3.7 ± 2 nM and the IC50 (A498; A498, 72 h) was 0.8 nM. For the same molecule, the IC50 (MX-1W; MX-1W, breast, SRB staining) was 1.8 ± 0.6 nM, the IC50 (MX-1W; MX-1W, SRB, vehicle control (DMSO), no MDR-1 inhibitor) was 1.4 nM and the IC50 (MX-1W; read-out: IC50 + 5.0 uM MDR-1 inhibitor, MX-1W, SRB, + 5.0 uM 7-(6,7-dimethoxy-3,4-dihydro-1H-isoquinolin-2-yl)-2(3,4-dimethoxy-phenyl)-2-p-tolysulfanyl-heptanenitrile) was 1.3 nM. For the same molecule, the IC50 (Lox; LOX) was 1.4 ± 0.6 nM, the “RR, relative resistance” value (KB-V1 (MDR1++)) was 81 and the “Ratio KBV1/KB” value (KB-V1 (MDR1++)) was 80.6. The “resistance of KB-V1 cells” value (KB-V1 (MDR1++)) was 81 fold, the IC50 (KB-V1 (MDR1++); 72 h) was 57 nM and the IC50 (KB-V1 (MDR1++); 72 h, read-out: IC50 + 5.0 uM MDR-1 inhibitor) was 1.3 nM. For the same molecule, the IC50 (KB-V1 (MDR1++); read-out: KB-V1 (MDR1++) IC50, nM (N)) was 77.4 nM, the “resistance of A549.EpoB40 cells” value (A549.EpoB40) was 0.6 fold and the IC50 (Capan-1; CAPAN-1, 72 h) was 1.4 nM. It also gave an IC50 (PC3MM2; PC3MM2, 72 h) of 1.9 ± 0.1 nM.
CC(=O)O[C@H]1C(=O)[C@@]2(C)[C@H]([C@H](OC(=O)c3ccccc3)[C@]3(O)C[C@H](OC(=O)[C@H](O)[C@@H](NC(=O)c4ccccc4)c4ccccc4)C(C)=C1C3(C)C)[C@]1(OC(C)=O)CO[C@@H]1C[C@@H]2O [paclitaxel, reference compound] gave an IC50 (HCT-15; HCT-15, colon, SRB staining, read-out: IC50) of 438 ± 248 nM, an IC50 (HCT-15; HCT-15, SRB, + 5.0 uM MDR-1 inhibitor (heptanenitrile of Table 2), read-out: IC50 + 5.0 uM MDR-1 inhibitor) of 5 nM and an IC50 (HCT-15; HCT-15, SRB, vehicle control (DMSO), no MDR-1 inhibitor, read-out: IC50) of 479 nM. For the same molecule, the IC50 (U87; U87, glioblastoma, 3 days, SRB staining, read-out: IC50) was 25.1 nM, the IC50 (KB-8-5 (MDR1+); MDR1, 72 h, KB-85, 3 days, SRB, vehicle (DMSO), no MDR-1 inhibitor, mean of two experiments) was 41.9 nM and the IC50 (KB-8-5 (MDR1+); MDR1, 72 h, read-out: IC50 + 5.0 uM MDR-1 inhibitor, KB-85, 3 days, SRB, + 5.0 uM MDR-1 inhibitor (heptanenitrile), mean of two experiments) was 4.4 nM. For the same molecule, the IC50 (KB-8-5 (MDR1+); MDR1, read-out: KB-8-5 (MDR1+) IC50, nM (N), KB-8-5, moderate MDR1 expression, Table 3) was 63.3 ± 29 nM, the “resistance of KB-8-5 cells” value (KB-8-5 (MDR1+); KB-8-5 (KB-85) vs KB-3-1, in vitro) was 19 fold and 14 fold and the IC50 (DLD-1; DLD-1, colon, SRB staining, read-out: IC50) was 30.8 ± 12.7 nM. It also gave an IC50 (DLD-1; DLD-1, SRB, + 5.0 uM MDR-1 inhibitor (heptanenitrile of Table 2), read-out: IC50 + 5.0 uM MDR-1 inhibitor) of 3.8 nM, an IC50 (DLD-1; DLD-1, SRB, vehicle control (DMSO), no MDR-1 inhibitor, read-out: IC50) of 21.8 nM and an IC50 (HT-29; 72 h, HT-29, colon, 3 days, SRB staining, read-out: IC50) of 6.1 nM. The IC50 (KB-PTX-15+099; KB-PTX-15+099, Table 6, read-out: KB-PTX-15+099 IC50) was 57.8 ± 9.6 nM, the “resistance of KB-PTX-15+099 cells” value (KB-PTX-15+099; vs KB-3-1) was 21 fold and the IC50 (A431; A431, squamous, 3 days, SRB staining, read-out: IC50) was 7.6 nM. It also gave an IC50 (S1; 72 h, S1, colon, 3 days, SRB staining, read-out: IC50) of 92 ± 100 nM, an IC50 (S1; S1 parental, Table 5, read-out: S1 IC50, nM (N)) of 92 ± 100 nM and an IC50 (A498; 72 h, A498, renal, 3 days, SRB staining, read-out: IC50) of 27.5 nM. It also gave an IC50 (MX-1W; MX-1W, breast, SRB staining, read-out: IC50) of 15.4 ± 2.9 nM, an IC50 (MX-1W; MX-1W, SRB, + 5.0 uM 7-(6,7-dimethoxy-3,4-dihydro-1H-isoquinolin-2-yl)-2(3,4-dimethoxy-phenyl)-2-p-tolysulfanyl-heptanenitrile, read-out: IC50 + 5.0 uM MDR-1 inhibitor) of 8.3 nM and an IC50 (MX-1W; MX-1W, SRB, vehicle control (DMSO), no MDR-1 inhibitor, read-out: IC50) of 138 nM. For the same molecule, the IC50 (Lox; Lox, melanoma, 3 days, SRB staining, read-out: IC50) was 17.3 ± 5.6 nM, the IC50 (KB-V1 (MDR1++); 72 h, KB-V1, 3 days, SRB, vehicle (DMSO), no MDR-1 inhibitor, mean of two experiments) was > 3000 nM and the IC50 (KB-V1 (MDR1++); 72 h, read-out: IC50 + 5.0 uM MDR-1 inhibitor, KB-V1, 3 days, SRB, + 5.0 uM MDR-1 inhibitor (heptanenitrile), mean of two experiments) was 15 nM. The IC50 (KB-V1 (MDR1++); read-out: KB-V1 (MDR1++) IC50, nM (N), KB-V1, high MDR1 expression, Table 3) was 5480 ± 2780 nM, the “resistance of A549.EpoB40 cells” value (A549.EpoB40) was 13 fold and the IC50 (Capan-1; 72 h, Capan-1, pancreatic, 3 days, SRB staining, read-out: IC50) was 4 nM. It also gave an IC50 (PC3MM2; 72 h, PC3MM2, prostate, 3 days, SRB staining, read-out: IC50) of 8.7 nM.
